Results taken from patent US20260083865A1, “PROSTATE SPECIFIC MEMBRANE ANTIGEN (PSMA) LIGANDS AND USE THEREOF” (priority 2022, published 2026).
Read-outs that look alike come from different tables or passages of the source. Numbered stars: 1 amine (or outer) side, 2 acyl side, 3 side chain; on linkers, the order of the positions; unused ones are H or OH. Bridge positions count the residues as written; N and C are the ends. Square brackets hold non-standard residues; d marks the D form. Side chains are listed from the residue outwards. Peptide text beside a SMILES is read from it. * marks the point of attachment. X3 = O=C(O)CN1CCN(CC(=O)O)CCN(CC(=O)NCCCOCCOCCOCCCN*)CCN(CC(=O)O)CC1; DOTA = O=C(O)CN1CCN(CC(=O)O)CCN(CC(=O)*)CCN(CC(=O)O)CC1; Phe(4-Cl) = N[C@@H](Cc1ccc(Cl)cc1)C(=O)O; Thz(5,5-Me2) = CC1(C)SCN[C@@H]1C(=O)O; X1 = O=C(CC1CCN([*:1])CC1)[*:2]; αMeD = C[C@](N)(CC(=O)O)C(=O)O; Suc = O=C(CCC(=O)[*:2])[*:1]; Tle = CC(C)(C)[C@H](N)C(=O)O; 4Amb = NCc1ccc(C(=O)O)cc1; 4Abz = Nc1ccc(C(=O)O)cc1; Aib = CC(C)(N)C(=O)O

Assays:
[1] = molecular target: T1, PSMA-expressing C4-2 cells (Homo sapiens, UniProt Q04609); assay: FACS binding assay (competition with 50 nM PSM-0183); conditions: for IC50: read-out: pIC50 [C4-2] CAT (converted)
T1 construct: PSMA-expressing C4-2 cells (ATCC, Cat. No. CRL-3314) were cultured in RPMI-1640; host or cells: C4-2 cells
T1 sequence (Q04609 whole entry): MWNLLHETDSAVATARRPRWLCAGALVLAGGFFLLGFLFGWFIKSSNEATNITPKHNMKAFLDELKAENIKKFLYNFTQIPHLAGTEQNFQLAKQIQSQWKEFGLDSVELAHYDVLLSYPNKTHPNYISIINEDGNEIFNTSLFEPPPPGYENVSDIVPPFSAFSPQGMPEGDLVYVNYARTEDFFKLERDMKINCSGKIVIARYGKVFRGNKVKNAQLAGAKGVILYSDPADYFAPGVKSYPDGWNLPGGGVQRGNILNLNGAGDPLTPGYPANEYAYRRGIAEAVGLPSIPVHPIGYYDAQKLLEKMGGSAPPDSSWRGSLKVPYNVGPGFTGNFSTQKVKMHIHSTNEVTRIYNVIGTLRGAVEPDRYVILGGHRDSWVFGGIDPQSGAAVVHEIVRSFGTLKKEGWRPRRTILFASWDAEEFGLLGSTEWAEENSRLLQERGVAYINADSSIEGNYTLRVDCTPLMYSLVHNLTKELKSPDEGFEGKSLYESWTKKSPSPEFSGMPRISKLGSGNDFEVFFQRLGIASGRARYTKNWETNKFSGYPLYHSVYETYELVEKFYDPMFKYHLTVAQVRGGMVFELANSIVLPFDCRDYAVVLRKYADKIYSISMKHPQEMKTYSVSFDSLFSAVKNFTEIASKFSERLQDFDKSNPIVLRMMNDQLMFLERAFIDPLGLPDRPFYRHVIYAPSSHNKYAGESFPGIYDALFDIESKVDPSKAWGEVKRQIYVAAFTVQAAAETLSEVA
Outline: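 C4-2 cells were incubated 1 h at 4 °C with 50 nM AF488-labelled peptide PSM-0183 plus increasing test compound concentrations, then washed twice in ice-cold buffer. Median fluorescence in the AF488 channel was read by flow cytometry. IC50/pIC50 was derived by 4PL fitting of MFI versus concentration.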

[2] = molecular target: T2, Fc-fusion protein of human PSMA (hPSMA-Fc) (Homo sapiens, UniProt Q04609); assay: Surface plasmon resonance assay (Biacore T200, single cycle kinetic); type: binding; conditions: hPSMA-Fc, 25° C.; for Kd: read-out: pKD CAT (converted)
T2 construct: purchased Acro Biosystems PSA-H5264
T2 sequence (Q04609 44-750 limits assumed): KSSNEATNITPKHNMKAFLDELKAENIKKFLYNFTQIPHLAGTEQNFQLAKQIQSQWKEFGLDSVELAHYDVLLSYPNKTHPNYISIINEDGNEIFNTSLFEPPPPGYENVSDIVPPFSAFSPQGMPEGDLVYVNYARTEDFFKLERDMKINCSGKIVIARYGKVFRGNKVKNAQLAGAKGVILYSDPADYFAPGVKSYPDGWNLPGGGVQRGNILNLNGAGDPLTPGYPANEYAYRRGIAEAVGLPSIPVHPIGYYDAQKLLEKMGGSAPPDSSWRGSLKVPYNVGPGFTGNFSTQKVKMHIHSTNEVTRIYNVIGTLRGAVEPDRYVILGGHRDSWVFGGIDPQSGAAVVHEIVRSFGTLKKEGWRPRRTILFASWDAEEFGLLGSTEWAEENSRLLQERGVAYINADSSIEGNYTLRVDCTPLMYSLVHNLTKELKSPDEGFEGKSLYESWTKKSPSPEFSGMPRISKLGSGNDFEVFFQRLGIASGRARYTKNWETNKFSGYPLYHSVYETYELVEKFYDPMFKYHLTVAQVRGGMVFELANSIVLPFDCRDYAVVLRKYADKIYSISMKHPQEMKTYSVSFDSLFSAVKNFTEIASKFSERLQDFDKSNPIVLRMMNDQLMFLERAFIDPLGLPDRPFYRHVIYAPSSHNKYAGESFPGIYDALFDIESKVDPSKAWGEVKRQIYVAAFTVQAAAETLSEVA
Outline: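 hPSMA-Fc was captured (~1000 RU) on an Fc-binding-peptide CM5 chip, and compounds were run in single cycle kinetic mode at 25° C in HBST with 0.1% DMSO. Double-blank-corrected sensorgrams were fitted to a 1:1 Langmuir model to give KD, reported as pKD.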

[3] = FACS binding, C4-2 cells, competition with 50 nM PSM-0183, category
[4] = SPR, single cycle kinetic, category
[5] = pIC50 category of FACS binding, C4-2 cells
[6] = pKD category for PSMA SPR activity assay

Row | Compound | IC50 [1, 5] [nM] | Kd [2, 6] [nM] | further results
1 | InDOTA-Cmp-Thr-Aib-Phe-[Cys-Lys-Arg-Aib-Asn-Cys]-Tle-Thr-NH2 [PSM-0195] | – | – | pIC50 [C4-2] CAT [1, 3]: A (pIC50 values >6.7); pKD CAT [2, 4]: A (pKD values >7.9)
2 | CC(=O)N[C@H](C(=O)NC(C)(C)C(=O)N[C@@H](Cc1ccccc1)C(=O)N[C@H]1CSSC[C@@H](C(=O)N[C@H](C(=O)N[C@H](C(=O)Nc2ccc(C(=O)N[C@H](CCCCNC(=O)CN3CCN(CC(=O)O)CCN(CC(=O)O)CCN(CC(=O)O)CC3)C(N)=O)cc2)[C@@H](C)O)C(C)(C)C)NC(=O)[C@H](CC(N)=O)NC(=O)C(C)(C)NC(=O)[C@H](CCCNC(=N)N)NC(=O)[C@H](CCCCN)NC1=O)[C@@H](C)O [PSM-0471, Ac-Thr-Aib-Phe-[Cys-Lys-Arg-Aib-Asn-Cys]-Tle-Thr-Pab-lys(DOTA)-NH2] (Ac-T[Aib]FCKR[Aib]NC[Tle]T[4Abz][dK](DOTA)-NH2; disulfide 4-9) | < 200 | < 12.6 | –
3 | CC(=O)N[C@H](C(=O)NC(C)(C)C(=O)N[C@@H](Cc1ccccc1)C(=O)N[C@H]1CSSC[C@@H](C(=O)N[C@H](C(=O)N[C@H](C(N)=O)[C@@H](C)O)C(C)(C)C)NC(=O)[C@H](CC(N)=O)NC(=O)[C@H](CCCCNC(=O)CCC(=O)NCCCOCCOCCOCCCNC(=O)CN2CCN(CC(=O)O)CCN(CC(=O)O)CCN(CC(=O)O)CC2)NC(=O)[C@H](CCCNC(=N)N)NC(=O)[C@H](CCCCN)NC1=O)[C@@H](C)O [PSM-0465, Ac-Thr-Aib-Phe-[Cys-Lys-Arg-Lys(DOTA-Ttds)-Asn-Cys]-Tle-Thr-NH2] (Ac-T[Aib]FCKRK([Suc-X3])NC[Tle]T-NH2; disulfide 4-9) | < 200 | < 12.6 | –
4 | C[C@@H](O)[C@H](NC(=O)[C@@H](NC(=O)[C@@H]1CSSC[C@H](NC(=O)[C@H](Cc2ccccc2)NC(=O)C(C)(C)NC(=O)[C@@H](NC(=O)c2ccc(CNC(=O)CN3CCN(CC(=O)O)CCN(CC(=O)O)CCN(CC(=O)O)CC3)cc2)[C@@H](C)O)C(=O)N[C@@H](CCCCN)C(=O)N[C@@H](CCCNC(=N)N)C(=O)NC(C)(C)C(=O)N[C@@H](CC(N)=O)C(=O)N1)C(C)(C)C)C(N)=O [PSM-0202, DOTA-Pamb-Thr-Aib-Phe-[Cys-Lys-Arg-Aib-Asn-Cys]-Tle-Thr-NH2] ({DOTA-4Amb}-T[Aib]FCKR[Aib]NC[Tle]T-NH2; disulfide 4-9) | – | – | IC50 [1, 3]: < 200 nM; Kd [2, 4]: < 12.6 nM
5 | CC(=O)N[C@H](C(=O)NC(C)(C)C(=O)N[C@@H](Cc1ccccc1)C(=O)N[C@H]1CSSC[C@@H](C(=O)N[C@H](C(=O)N[C@H](C(=O)N[C@@H](CC(=O)O)C(N)=O)[C@@H](C)O)C(C)(C)C)NC(=O)[C@H](CC(N)=O)NC(=O)[C@H]2N(CSC2(C)C)C(=O)[C@H](CCCNC(=N)N)NC(=O)[C@H](CCCCN)NC1=O)[C@@H](C)O [PSM-0532, Ac-Thr-Aib-Phe-[Cys-Lys-Arg-Dtc-Asn-Cys]-Tle-Thr-Asp-NH2] (Ac-T[Aib]FCKR[Thz(5,5-Me2)]NC[Tle]TD-NH2; disulfide 4-9) | < 200 | < 12.6 | –
6 | C[C@@H](O)[C@H](NC(=O)[C@@H](NC(=O)[C@@H]1CSSC[C@H](NC(=O)[C@H](Cc2ccc(Cl)cc2)NC(=O)[C@](C)(CC(=O)O)NC(=O)[C@@H](NC(=O)CC2CCN(C(=O)CN3CCN(CC(=O)O)CCN(CC(=O)O)CCN(CC(=O)O)CC3)CC2)[C@@H](C)O)C(=O)N[C@@H](CCCCN)C(=O)N[C@@H](CCCNC(=N)N)C(=O)NC(C)(C)C(=O)N[C@@H](CC(N)=O)C(=O)N1)C(C)(C)C)C(N)=O [PSM-0346, DOTA-Cmp-Thr-Amd-Pcf-[Cys-Lys-Arg-Aib-Asn-Cys]-Tle-Thr-NH2] ({DOTA}-[X1]T[αMeD][Phe(4-Cl)]CKR[Aib]NC[Tle]T-NH2; disulfide 5-10) | – | – | IC50 ([1]; FACS binding, PSMA-expressing C4-2 cells, pIC50 category): 200 to 1260 nM; Kd ([2]; PSMA SPR assay, pKD category): 126 to 501 nM
7 | CC(=O)NC(C)(C)C(=O)N[C@@H](Cc1ccccc1)C(=O)N[C@H]1CSSC[C@@H](C(=O)N[C@H](C(=O)N[C@H](C(=O)N[C@@H](CC(=O)O)C(N)=O)[C@@H](C)O)C(C)(C)C)NC(=O)[C@H](CC(N)=O)NC(=O)[C@H](C)NC(=O)[C@H](CCCNC(=N)N)NC(=O)[C@H](CCCCN)NC1=O [PSM-0506, Ac-Aib-Pho-[Cys-Lys-Arg-Ala-Asn-Cys]-Tle-Thr-Asp-NH2] (Ac-[Aib]FCKRANC[Tle]TD-NH2; disulfide 3-8) | < 200 | < 12.6 | –
